This experiment relates to BRM-dependent transcription (BRG1 mutant lung cancer cell line A549). The experiment is described as follows: BRM-dependent transcription, MMTV luciferase reporter in BRG1 mutant A549 cells. It counts as cell-based. The following applies: Table 11; for IC50: A549-MMTV luciferase reporter, dexamethasone induced, 6 hours; for Ratio (MDA-MMTV IC50 (μM) divided by A549-MMTV IC50 (μM)): MMTV luciferase reporter cell lines, selectivity BRG1/BRM. Put shortly:
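Compound dose series added to dexamethasone-stimulated A549 cells (BRG1 mutant) carrying a BRM-dependent mouse mammary tumor virus luciferase reporter; luminescence measured at 6 h post-stimulation.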
For orientation: Reporter assays use an easily measured gene product as a stand-in for the process of interest.

In the case of `[2H]C([2H])([2H])C([2H])([2H])Oc1nc(C(F)F)ccc1-c1ccc2cnc(CNC(=O)c3cc(Br)c4c(c3)S(=O)(=O)[C@@H](F)COC4)cc2n1` [Compound 486], the “Ratio (MDA-MMTV IC50 (μM) divided by A549-MMTV IC50 (μM))” value turned out to be 33.87. For the same compound, the midpoint of inhibition (Homo sapiens, A549, 6 h), the IC50, lay at 13.3 nM.
For `COc1ccc(-c2ccc3cnc(CNC(=O)c4cc(Br)c5c(c4)S(=O)(=O)[C@@H](F)COC5)cc3n2)nc1C1CC1` [Compound 487], in that order: 53.94 and 13.4 nM.
For `O=C(NCc1cc2nc(-c3ccc(C(F)F)nc3OCC3CC3)ccc2cn1)c1cc(F)c2c(c1)S(=O)(=O)[C@@H](F)COC2` [Compound 488], in that order: 26.53 and 7.9 nM.
The matching figures for `[2H]C([2H])([2H])C([2H])([2H])Oc1nc([C@@H](F)CF)ccc1-c1ccc2cnc(CNC(=O)c3cc(Br)c4c(c3)S(=O)(=O)[C@@H](F)COC4)cc2n1` [Compound 489]: 35.95 and 11.8 nM.
With `O=C(NCc1cc2nc(-c3ccc([C@H](F)C(F)F)c(C4CC4)n3)ccc2cn1)c1cc(C(F)F)c2c(c1)S(=O)(=O)[C@@H](F)COC2` [Compound 490], the “Ratio (MDA-MMTV IC50 (μM) divided by A549-MMTV IC50 (μM))” value amounted to 26.59. Where the note is “Homo sapiens, A549, 6 h”, this compound showed an IC50 of 7.9 nM.
The matching figures for `O=C(NCc1cc2nc(-c3ccc([C@H](F)C(F)F)c(C4CC4)n3)ccc2cn1)c1cc(Cl)c2c(c1)S(=O)(=O)[C@@H](F)COC2` [Compound 491]: 23.59 and 18.2 nM.
The matching figures for `O=C(NCc1cc2nc(-c3ccc([C@H](F)C(F)F)c(C4CC4)n3)ccc2cn1)c1cc(Br)c2c(c1)S(=O)(=O)[C@@H](F)COC2` [Compound 492]: 24.09 and 16.6 nM.
Regarding `[2H]C([2H])([2H])Oc1ccc(-c2ccc3cnc(CNC(=O)c4cc(Br)c5c(c4)S(=O)(=O)[C@@H](F)COC5)cc3n2)nc1[C@H]1CC1(F)F` [Compound 493], the “Ratio (MDA-MMTV IC50 (μM) divided by A549-MMTV IC50 (μM))” value is on record as 49.65. Where the note is “Homo sapiens, A549, 6 h”, this compound returned an IC50 of 19.4 nM.
The matching figures for `COCCCOc1cnc2c(c1)OCCN2c1ccc2cnc(CNC(=O)c3cc(C(F)F)c4c(c3)S(=O)(=O)[C@@H](F)COC4)cc2n1` [Compound 494]: 28.82 and 5.7 nM.
As to `[2H]C([2H])([2H])C([2H])([2H])Oc1nc(C(F)F)ccc1-c1ccc2cnc(CNC(=O)c3cc(Cl)c4c(c3)S(=O)(=O)[C@@H](F)COC4)cc2n1` [Compound 495], the “Ratio (MDA-MMTV IC50 (μM) divided by A549-MMTV IC50 (μM))” value was determined as 32.03. In addition, the midpoint of inhibition (Homo sapiens, A549, 6 h), the IC50, lay at 15.1 nM.
On to `C[C@@H]1CCN1c1cnc2c(-c3ccc4cnc(CNC(=O)c5cc(F)c6c(c5)S(=O)(=O)[C@@H](F)COC6)cc4n3)cccc2c1` [Compound 496], for which it took 1.6 nM to reach half-maximal inhibition (IC50) and the “Ratio (MDA-MMTV IC50 (μM) divided by A549-MMTV IC50 (μM))” value is recorded as 21.18.
The matching figures for `C[C@@H]1CCN1c1cnc2c(-c3ccc4cnc(CNC(=O)c5cc(Cl)c6c(c5)S(=O)(=O)[C@@H](F)COC6)cc4n3)cccc2c1` [Compound 497]: 12.4 nM and 29.41.
The matching figures for `C[C@@H]1CCN1c1cnc2c(-c3ccc4cnc(CNC(=O)c5cc(Cl)c6c(c5)S(=O)(=O)[C@@H](F)COC6)cc4n3)cccc2c1` [Compound 498]: 5.9 nM and 38.20.
For the compound `[2H]C([2H])([2H])C([2H])([2H])Oc1nc(C(C)(F)F)ccc1-c1ccc2cnc(CNC(=O)c3cc(Cl)c4c(c3)S(=O)(=O)[C@@H](F)COC4)cc2n1` [Compound 499], the “Ratio (MDA-MMTV IC50 (μM) divided by A549-MMTV IC50 (μM))” value was 24.97. Moreover, 15 nM corresponded to half-maximal inhibition (Homo sapiens, A549, 6 h) (IC50).
The matching figures for `[2H]C([2H])([2H])OC([2H])([2H])C([2H])([2H])Oc1cnc2c(c1)OCCN2c1ccc2cnc(CNC(=O)c3cc(C(F)F)c4c(c3)S(=O)(=O)[C@@H](F)COC4)cc2n1` [Compound 500]: 21.12 and 7.7 nM.
The matching figures for `CCOc1nn(-c2ccc3cnc(CNC(=O)c4cc(C(F)F)c5c(c4)S(=O)(=O)[C@@H](F)COC5)cc3n2)cc1F` [Compound 501]: 30.55 and 13 nM.
The matching figures for `[2H]C([2H])([2H])[C@@]([2H])(F)c1ccc(-c2ccc3cnc(CNC(=O)c4cc(Br)c5c(c4)S(=O)(=O)[C@@H](F)COC5)cc3n2)c(OC)n1` [Compound 502]: 38.00 and 9.6 nM.
As for `O=C(NCc1cc2nc(-c3cccc4c3OC(F)(F)O4)ccc2cn1)c1cc(C(F)F)c2c(c1)S(=O)(=O)[C@@H](F)COC2` [Compound 503], the “Ratio (MDA-MMTV IC50 (μM) divided by A549-MMTV IC50 (μM))” value was found to be 33.25. Also, the midpoint of inhibition (Homo sapiens, A549, 6 h), the IC50, lay at 17.3 nM.
The matching figures for `CCOc1nc(C(F)F)ncc1-c1ccc2cnc(CNC(=O)c3cc(Cl)c4c(c3)S(=O)(=O)[C@@H](F)COC4)cc2n1` [Compound 505]: 21.63 and 10.6 nM.
Take `[2H]C([2H])([2H])Oc1ccc(-c2ccc3cnc(CNC(=O)c4cc(Cl)c5c(c4)S(=O)(=O)[C@@H](F)COC5)cc3n2)nc1C1CC1(F)F` (some centres unmarked) [Compound 506]: the “Ratio (MDA-MMTV IC50 (μM) divided by A549-MMTV IC50 (μM))” value was determined as 42.09. In addition, where the note is “Homo sapiens, A549, 6 h”, 10.2 nM corresponded to half-maximal inhibition (IC50).
Consider `[2H]C([2H])([2H])Oc1ccc(-c2ccc3cnc(CNC(=O)c4cc(Cl)c5c(c4)S(=O)(=O)[C@@H](F)COC5)cc3n2)nc1C1CC1(F)F` (some centres unmarked) [Compound 507], for which the IC50 was found to be 13.5 nM and the “Ratio (MDA-MMTV IC50 (μM) divided by A549-MMTV IC50 (μM))” value is 30.86.
Regarding `COCCOc1nn(-c2ccc3cnc(CNC(=O)c4cc(F)c5c(c4)S(=O)(=O)[C@@H](F)COC5)cc3n2)cc1F` [Compound 508], the “Ratio (MDA-MMTV IC50 (μM) divided by A549-MMTV IC50 (μM))” value is 21.72. Moreover, where the note is “Homo sapiens, A549, 6 h”, 11.5 nM corresponded to half-maximal inhibition (IC50).
With `CCOc1nc(C(C)(F)F)ccc1-c1ccc2cnc(CNC(=O)c3cc(F)c4c(c3)S(=O)(=O)[C@@H](F)COC4)cc2n1` [Compound 509], half-maximal inhibition (IC50) required 20.2 nM and the “Ratio (MDA-MMTV IC50 (μM) divided by A549-MMTV IC50 (μM))” value worked out at 25.33.
In the case of `CCOc1nc(C(F)F)ncc1-c1ccc2cnc(CNC(=O)c3cc(C(F)F)c4c(c3)S(=O)(=O)[C@@H](F)COC4)cc2n1` [Compound 510], the “Ratio (MDA-MMTV IC50 (μM) divided by A549-MMTV IC50 (μM))” value is given as 22.06. In addition, for the setting “Homo sapiens, A549, 6 h”, the IC50 was 14.6 nM.
For `COCCOc1nn(-c2ccc3cnc(CNC(=O)c4cc(Cl)c5c(c4)S(=O)(=O)[C@@H](F)COC5)cc3n2)cc1F` [Compound 512], in that order: 23.26 and 10 nM.
As for `COCCOc1cnc2c(-c3ccc4cnc(CNC(=O)c5cc(Cl)c6c(c5)S(=O)(=O)[C@@H](F)COC6)cc4n3)cccc2c1` [Compound 513], the “Ratio (MDA-MMTV IC50 (μM) divided by A549-MMTV IC50 (μM))” value is listed as 27.47. Further, the 50% inhibitory concentration (IC50) (Homo sapiens, A549, 6 h) is 13.7 nM.
The matching figures for `O=C(NCc1cc2nc(-n3cc(F)c(OC(F)F)n3)ccc2cn1)c1cc(C(F)F)c2c(c1)S(=O)(=O)[C@@H](F)COC2` [Compound 514, (2R)—N-[[2-[3-(difluoromethoxy)-4-fluoro-pyrazol-1-yl]-1,6-naphthyridin-7-yl]methyl]-6-(difluoromethyl)-2-fluoro-1,1-dioxo-3,5-dihydro-2H-4,1benzoxathiepine-8-carboxamide]: 32.01 and 21 nM.
With `CCOc1nc([C@@H](F)CF)ccc1-c1ccc2cnc(CNC(=O)c3cc(C(F)F)c4c(c3)S(=O)(=O)[C@@H](F)COC4)cc2n1` [Compound 515], inhibition was half-maximal at 16.7 nM (IC50) and the “Ratio (MDA-MMTV IC50 (μM) divided by A549-MMTV IC50 (μM))” value is listed as 23.82.
The matching figures for `CCOc1nc([C@@H](F)CF)ccc1-c1ccc2cnc(CNC(=O)c3cc(Cl)c4c(c3)S(=O)(=O)[C@@H](F)COC4)cc2n1` [Compound 516]: 12.1 nM and 31.51.
Consider `CCOc1nc([C@@H](F)CF)ccc1-c1ccc2cnc(CNC(=O)c3cc(Br)c4c(c3)S(=O)(=O)[C@@H](F)COC4)cc2n1` [Compound 517], for which it took 20.4 nM to reach half-maximal inhibition (IC50) and the “Ratio (MDA-MMTV IC50 (μM) divided by A549-MMTV IC50 (μM))” value is given as 35.51.
The matching figures for `CCOc1nc([C@H](F)CF)ccc1-c1ccc2cnc(CNC(=O)c3cc(C(F)F)c4c(c3)S(=O)(=O)[C@@H](F)COC4)cc2n1` [Compound 518]: 21 nM and 35.47.
For `CCOc1nc([C@H](F)CF)ccc1-c1ccc2cnc(CNC(=O)c3cc(Cl)c4c(c3)S(=O)(=O)[C@@H](F)COC4)cc2n1` [Compound 519], in that order: 22.6 nM and 28.12.
With `[2H]C([2H])([2H])Oc1ccc(-c2ccc3cnc(CNC(=O)c4cc(Br)c5c(c4)S(=O)(=O)[C@@H](F)COC5)cc3n2)nc1C1CC1` [Compound 522], the “Ratio (MDA-MMTV IC50 (μM) divided by A549-MMTV IC50 (μM))” value worked out at 29.68. Where the note is “Homo sapiens, A549, 6 h”, the midpoint of inhibition, the IC50, lay at 21.4 nM.
For `[2H]C([2H])([2H])Oc1ccc(-c2ccc3cnc(CNC(=O)c4cc(Cl)c5c(c4)S(=O)(=O)[C@@H](F)COC5)cc3n2)nc1C1CC1` [Compound 523], in that order: 26.20 and 16.2 nM.

By IC50 is commonly meant the concentration needed to halve the response being measured. Lower therefore signals higher potency.
